Laboratory results as given in ChEMBL document CHEMBL1141053, “Synthesis and SAR of novel oxazolidinones: discovery of ranbezolid” (2005).
Values after ≈ are worked out from the molar mass of the structure shown.

Legend:
Format in all cases: functional
Staphylococcus aureus [1] = experiment: In vitro minimum inhibitory concentration against Staphylococcus aureus ATCC 25923 after incubation in air at 35 degree C for 24 hr using agar dilution method; settings: ATCC 25923, 24 h
Staphylococcus aureus [2] = experiment: In vitro minimum inhibitory concentration against methicillin-resistant Staphylococcus aureus 562 after incubation in air at 35 degree C for 24 hr using agar dilution method
Enterococcus faecium = experiment: In vitro minimum inhibitory concentration against vancomycin-resistant Enterococcus faecium 6A after incubation in air at 35 degree C for 24 hr using agar dilution method
Streptococcus pyogenes = experiment: In vitro minimum inhibitory concentration against Streptococcus pyogenes ATCC 19615 after incubation in air at 35 degree C for 24 hr using agar dilution method; settings: ATCC 19615, 24 h
Enterococcus faecalis = experiment: In vitro minimum inhibitory concentration against Enterococcus faecalis ATCC 29212 after incubation in air at 35 degree C for 24 hr using agar dilution method; settings: ATCC 29212, 24 h
Streptococcus pneumoniae = experiment: In vitro minimum inhibitory concentration against Streptococcus pneumoniae ATCC 6303 after incubation in air at 35 degree C for 24 hr using agar dilution method; settings: ATCC 6303, 24 h
Staphylococcus aureus [3] = experiment: In vivo effective dose (on day 7-post-infection) against methicillin-resistant Staphylococcus aureus 562 infected mice upon peroral administration at 30 min and 4 hr post-infection; settings: po
Escherichia coli [4] = experiment: Minimum inhibitory concentration against wild-type Escherichia coli strain
Escherichia coli [5] = experiment: Minimum inhibitory concentration against […] AB pump deficient Escherichia coli strain
Escherichia coli [6] = experiment: Minimum inhibitory concentration against Tol C pump deficient Escherichia coli strain

CC(=O)NC[C@H]1CN(c2ccc(N3CCC(N(C)c4ccc([N+](=O)[O-])o4)C(C)C3)c(F)c2)C(=O)O1 (some centres not stated)
MIC (Staphylococcus aureus [1]): > 16 µg/mL
MIC (Staphylococcus aureus [2]): > 16 µg/mL
MIC (Enterococcus faecium): > 16 µg/mL
MIC (Streptococcus pyogenes): > 16 µg/mL
MIC (Enterococcus faecalis): > 16 µg/mL
MIC (Streptococcus pneumoniae): > 16 µg/mL

CC(=O)NC[C@H]1CN(c2ccc(N3CCN(Cc4ccc(/C=N/O)o4)CC3)c(F)c2)C(=O)O1
MIC (Staphylococcus aureus [1]): 2 µg/mL (≈ 4.35 µM)
MIC (Staphylococcus aureus [2]): 2 µg/mL (≈ 4.35 µM)
MIC (Enterococcus faecium): 8 µg/mL (≈ 17.4 µM)
MIC (Streptococcus pyogenes): 4 µg/mL (≈ 8.71 µM)
MIC (Enterococcus faecalis): 16 µg/mL (≈ 34.8 µM)
MIC (Streptococcus pneumoniae): 8 µg/mL (≈ 17.4 µM)

CCOC(=O)c1ccc(CN2CCN(c3ccc(N4C[C@H](CNC(C)=O)OC4=O)cc3F)CC2)o1
MIC (Staphylococcus aureus [1]): > 16 µg/mL
MIC (Staphylococcus aureus [2]): > 16 µg/mL
MIC (Enterococcus faecium): > 16 µg/mL
MIC (Streptococcus pyogenes): > 16 µg/mL
MIC (Enterococcus faecalis): > 16 µg/mL
MIC (Streptococcus pneumoniae): > 16 µg/mL

CC(=O)NC[C@H]1CN(c2ccc(N3CCC(N(C(C)=O)c4ccc([N+](=O)[O-])o4)CC3)c(F)c2)C(=O)O1
MIC (Staphylococcus aureus [1]): > 16 µg/mL
MIC (Staphylococcus aureus [2]): > 16 µg/mL
MIC (Enterococcus faecium): > 16 µg/mL
MIC (Streptococcus pyogenes): > 16 µg/mL
MIC (Enterococcus faecalis): > 16 µg/mL
MIC (Streptococcus pneumoniae): > 16 µg/mL

CC(=O)NC[C@H]1CN(c2ccc(N3CCN(Cc4ccc(C(=O)O)o4)CC3)c(F)c2)C(=O)O1
MIC (Staphylococcus aureus [1]): > 16 µg/mL
MIC (Staphylococcus aureus [2]): > 16 µg/mL
MIC (Enterococcus faecium): > 16 µg/mL
MIC (Streptococcus pyogenes): > 16 µg/mL
MIC (Enterococcus faecalis): > 16 µg/mL
MIC (Streptococcus pneumoniae): > 16 µg/mL

CC(=O)NC[C@H]1CN(c2ccc(N3CCN(Cc4ccc(CO)o4)CC3)c(F)c2)C(=O)O1
MIC (Staphylococcus aureus [1]): > 16 µg/mL
MIC (Staphylococcus aureus [2]): > 16 µg/mL
MIC (Enterococcus faecium): > 16 µg/mL
MIC (Streptococcus pyogenes): > 16 µg/mL
MIC (Enterococcus faecalis): > 16 µg/mL
MIC (Streptococcus pneumoniae): > 16 µg/mL

CC(=O)NC[C@H]1CN(c2ccc(N3CCN(Cc4ccc([N+](=O)[O-])s4)CC3)c(F)c2)C(=O)O1
MIC (Staphylococcus aureus [1]): 8 µg/mL (≈ 16.8 µM)
MIC (Staphylococcus aureus [2]): 8 µg/mL (≈ 16.8 µM)
MIC (Enterococcus faecium): 8 µg/mL (≈ 16.8 µM)
MIC (Streptococcus pyogenes): 1 µg/mL (≈ 2.09 µM)
MIC (Enterococcus faecalis): 8 µg/mL (≈ 16.8 µM)
MIC (Streptococcus pneumoniae): 8 µg/mL (≈ 16.8 µM)

CC(=O)NC[C@H]1CN(c2ccc(N3C[C@@H]4[C@@H](CN(C)c5ccc([N+](=O)[O-])o5)[C@@H]4C3)c(F)c2)C(=O)O1
MIC (Staphylococcus aureus [1]): 2 µg/mL (≈ 4.1 µM)
MIC (Staphylococcus aureus [2]): 1 µg/mL (≈ 2.05 µM)
MIC (Enterococcus faecium): 2 µg/mL (≈ 4.1 µM)
MIC (Streptococcus pyogenes): 0.125 µg/mL (≈ 0.256 µM)
MIC (Enterococcus faecalis): 4 µg/mL (≈ 8.21 µM)
ED50 (Staphylococcus aureus [3]): > 25 mg/kg

CC(=O)NC[C@H]1CN(c2ccc(N3CCN(Cc4ccc(Br)o4)CC3)c(F)c2)C(=O)O1
MIC (Staphylococcus aureus [1]): > 16 µg/mL
MIC (Staphylococcus aureus [2]): > 16 µg/mL
MIC (Enterococcus faecium): > 16 µg/mL
MIC (Streptococcus pyogenes): > 16 µg/mL
MIC (Enterococcus faecalis): > 16 µg/mL
MIC (Streptococcus pneumoniae): > 16 µg/mL

CC(=O)NC[C@H]1CN(c2ccc(N3C[C@@H](C)N(Cc4ccc([N+](=O)[O-])o4)[C@@H](C)C3)c(F)c2)C(=O)O1
MIC (Staphylococcus aureus [1]): 16 µg/mL (≈ 32.7 µM)
MIC (Staphylococcus aureus [2]): 8 µg/mL (≈ 16.3 µM)
MIC (Enterococcus faecium): 8 µg/mL (≈ 16.3 µM)
MIC (Streptococcus pyogenes): 16 µg/mL (≈ 32.7 µM)
MIC (Enterococcus faecalis): 8 µg/mL (≈ 16.3 µM)
MIC (Streptococcus pneumoniae): 16 µg/mL (≈ 32.7 µM)

CC(=O)NC[C@H]1CN(c2ccc(N3CCCN(Cc4ccc([N+](=O)[O-])o4)CC3)c(F)c2)C(=O)O1.Cl
MIC (Staphylococcus aureus [1]): 2 µg/mL
MIC (Staphylococcus aureus [2]): 1 µg/mL
MIC (Enterococcus faecium): 2 µg/mL
MIC (Streptococcus pyogenes): 1 µg/mL
MIC (Enterococcus faecalis): 2 µg/mL
ED50 (Staphylococcus aureus [3]): > 25 mg/kg
MIC (Streptococcus pneumoniae): 1 µg/mL

CC(=O)NC[C@H]1CN(c2ccc(N3CCOCC3)c(F)c2)C(=O)O1 [LINEZOLID]
MIC (Enterococcus faecium): 2 µg/mL (≈ 5.93 µM)
MIC (Streptococcus pyogenes): 2 µg/mL (≈ 5.93 µM)
ED50 (Staphylococcus aureus [3]): 5.6 mg/kg

CC(=O)NC[C@H]1CN(c2ccc(N3CCN(Cc4ccc([N+](=O)[O-])o4)CC3)c(F)c2)C(=O)O1.Cl [RANBEZOLID CHLORIDE]
MIC (Staphylococcus aureus [1]): 1 µg/mL
MIC (Staphylococcus aureus [2]): 1 µg/mL
MIC (Escherichia coli [4]): ≤ 16 µg/mL
MIC (Enterococcus faecium): 2 µg/mL
MIC (Streptococcus pyogenes): 0.125 µg/mL
MIC (Escherichia coli [5]): 2 µg/mL
MIC (Enterococcus faecalis): 2 µg/mL
MIC (Escherichia coli [6]): 2 µg/mL
MIC (Streptococcus pneumoniae): 0.125 µg/mL

CN[C@H](CC(C)C)C(=O)N[C@H]1C(=O)N[C@@H](CC(N)=O)C(=O)N[C@H]2C(=O)N[C@H]3C(=O)N[C@H](C(=O)N[C@H](C(=O)O)c4cc(O)cc(O)c4-c4cc3ccc4O)[C@H](O)c3ccc(c(Cl)c3)Oc3cc2cc(c3O[C@@H]2O[C@H](CO)[C@@H](O)[C@H](O)[C@H]2O[C@H]2C[C@](C)(N)[C@H](O)[C@H](C)O2)Oc2ccc(cc2Cl)[C@H]1O [VANCOMYCIN]
MIC (Enterococcus faecalis): > 16 µg/mL
ED50 (Staphylococcus aureus [3]): 8.8 mg/kg
MIC (Streptococcus pneumoniae): 0.5 µg/mL (≈ 0.345 µM)
